According to PubChem BioAssay (NCI):
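Interpolation was linear, between the two tested concentrations surrounding the appropriate level; five concentrations were tested over 48 hours in 96-well plates. At the GI50, growth is halved. TGI is the concentration that stops growth completely.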

How the values were obtained:
Test in all cases: growth of human tumour cells (NCI), 48 h
[1] = test system: NCI-H23 lung
[2] = test system: SNB-75 CNS
[3] = test system: SNB-19 CNS
[4] = test system: COLO 205 colon
[5] = test system: BT-549 breast
[6] = test system: UO-31 renal
[7] = test system: OVCAR-5 ovarian
[8] = test system: IGROV1 ovarian
[9] = test system: DU-145 prostate
[10] = test system: UACC-257 melanoma
[11] = test system: CAKI-1 renal
[12] = test system: RXF 393 renal
[13] = test system: MDA-MB-435
[14] = test system: HOP-62 NSCLC
[15] = test system: NCI-H226 lung
[16] = test system: SK-MEL-2 melanoma
[17] = test system: 786-0 renal
[18] = test system: NCI/ADR-RES ovarian
[19] = test system: SN12C renal
[20] = test system: HS 578T breast
[21] = test system: U251 CNS
[22] = test system: A549 NSCLC
[23] = test system: SF-539 CNS
[24] = test system: NCI-H460 lung
[25] = test system: OVCAR-4 ovarian
[26] = test system: HOP-92 NSCLC
[27] = test system: M14 melanoma
[28] = test system: SF-295 CNS
[29] = test system: SK-MEL-5 melanoma
[30] = test system: HCC-2998 colon
[31] = test system: RPMI-8226 leukemia
[32] = test system: HCT-15 colon
[33] = test system: OVCAR-3 ovarian
[34] = test system: MOLT-4 leukemia
[35] = test system: UACC-62 melanoma
[36] = test system: MALME-3M melanoma
[37] = test system: SK-MEL-28 melanoma
[38] = test system: KM12 colon
[39] = test system: SW-620 colon
[40] = test system: SF-268 CNS
[41] = test system: LOX IMVI melanoma
[42] = test system: OVCAR-8 ovarian
[43] = test system: ACHN renal
[44] = test system: CCRF-CEM leukemia
[45] = test system: TK-10 renal
[46] = test system: MDA-MB-231 breast
[47] = test system: T-47D breast
[48] = test system: A498 renal
[49] = test system: HCT-116 colon
[50] = test system: NCI-H522 lung
[51] = test system: HT29 colon
[52] = test system: SK-OV-3 ovarian
[53] = test system: MCF7 breast
[54] = test system: HL-60(TB) leukemia
[55] = test system: K-562 leukemia
[56] = test system: PC-3 prostate

c1ccc(-c2nc(N3CCOCC3)c3c4c(sc3n2)CCCCCC4)nc1
GI50 [1]: 5.99 µM | TGI [1]: 26.5 µM | GI50 [2]: 7.1 µM | TGI [2]: 20.8 µM | GI50 [3]: 8.36 µM | TGI [3]: 21.6 µM | GI50 [4]: 9.4 µM | TGI [4]: 22.3 µM | GI50 [5]: 4.38 µM | TGI [5]: 16.7 µM | GI50 [6]: 1.17 µM | TGI [6]: 10.3 µM | GI50 [7]: 10.3 µM | TGI [7]: 26.5 µM | GI50 [8]: 3.16 µM | TGI [8]: 9.95 µM | GI50 [9]: 6.93 µM | TGI [9]: 19.6 µM | GI50 [10]: 10.9 µM | TGI [10]: 23.2 µM | GI50 [11]: 2.29 µM | TGI [11]: 16.1 µM | GI50 [12]: 8.38 µM | TGI [12]: 25.5 µM | GI50 [13]: 4.82 µM | TGI [13]: 17.7 µM | GI50 [14]: 9.53 µM | TGI [14]: 24.6 µM | GI50 [15]: 5 µM | TGI [15]: 24 µM | GI50 [16]: 7.9 µM | TGI [16]: 21.7 µM | GI50 [17]: 11.7 µM | TGI [17]: 32.8 µM | GI50 [18]: 0.836 µM | TGI [18]: 18.2 µM | GI50 [19]: 5 µM | TGI [19]: 29.4 µM | GI50 [20]: 3.37 µM | TGI [20]: 42.3 µM | GI50 [21]: 4.38 µM | TGI [21]: 17 µM | GI50 [22]: 3.57 µM | TGI [22]: 15.9 µM | GI50 [23]: 13 µM | TGI [23]: 26.7 µM | GI50 [24]: 3.68 µM | TGI [24]: 16 µM | GI50 [25]: 4.85 µM | TGI [25]: 80.3 µM | GI50 [26]: 0.622 µM | TGI [26]: 5.05 µM | GI50 [27]: 4.17 µM | TGI [27]: 16.5 µM | GI50 [28]: 3.39 µM | TGI [28]: 15.8 µM | GI50 [29]: 1.99 µM | TGI [29]: 9.45 µM | GI50 [30]: 6.99 µM | TGI [30]: 19.8 µM | GI50 [31]: 2.12 µM | TGI [31]: 9.67 µM | GI50 [32]: 3.43 µM | TGI [32]: 18.6 µM | GI50 [33]: 4.6 µM | TGI [33]: 16.2 µM | GI50 [34]: 3.77 µM | TGI [34]: 17 µM | GI50 [35]: 3.44 µM | TGI [35]: 14.3 µM | GI50 [36]: 3.32 µM | TGI [36]: 14.9 µM | GI50 [37]: 11 µM | TGI [37]: 23.2 µM | GI50 [38]: 4.28 µM | TGI [38]: 16.1 µM | GI50 [39]: 8.87 µM | TGI [39]: 21.9 µM | GI50 [40]: 8.82 µM | TGI [40]: 22.6 µM | GI50 [41]: 5.24 µM | TGI [41]: 20.9 µM | GI50 [42]: 5.08 µM | TGI [42]: 30.5 µM | GI50 [43]: 4.49 µM | TGI [43]: 16.6 µM | GI50 [44]: 3.59 µM | TGI [44]: 18.9 µM | GI50 [45]: 9.28 µM | TGI [45]: 25.5 µM | GI50 [46]: 7.43 µM | TGI [46]: 25.9 µM | GI50 [47]: 4.46 µM | TGI [47]: 22.7 µM | GI50 [48]: 1.65 µM | TGI [48]: 8.63 µM | GI50 [49]: 3.69 µM | TGI [49]: 15.3 µM | GI50 [50]: 5.85 µM | TGI [50]: 20.2 µM | GI50 [51]: 6.05 µM | TGI [51]: 22.7 µM | GI50 [52]: 9.25 µM | TGI [52]: 22.5 µM | GI50 [53]: 3.04 µM | TGI [53]: 12.8 µM | GI50 [54]: 4.49 µM | TGI [54]: 22.8 µM | GI50 [55]: 3.47 µM | TGI [55]: 23.7 µM | GI50 [56]: 2.69 µM | TGI [56]: 11.8 µM
